Experimental data reported in paper PMC8032764 (Scientific Reports, 2021).
Read-outs that look alike come from different tables or passages of the source.

Tests used:
Serotonin 5-HT2B = tested on: T1, Serotonin 5-HT2B; test: Cerep binding; set-up: species or system human; details: 10 μM; [125I](±)DOI; hum. recomb. (CHO)
T1 construct: purchased Eurofins Cerep

Chemokine CXCR2 (IL-8B) = tested on: T2, Chemokine CXCR2 (IL-8B); test: Cerep binding; set-up: species or system human; details: 10 μM; [125I]IL-8; hum. recomb. (HEK-293)
T2 construct: purchased Eurofins Cerep

[1] = tested on: T3, Norepinephrine transporter; test: Cerep binding; set-up: species or system human; details: 10 μM; [3H]nisoxetine; hum. recomb. (CHO)
T3 construct: host or cells: CHO

GABAA-α5 receptors = target: T4, GABAA-α5 receptors (Homo sapiens, UniProt P18507+P31644); test: [11C]-Ro 15-4513 PET receptor occupancy study in healthy volunteers; format: in vivo; details: for EC50: Emax model, nine subjects
T4 construct: occupancy at the GABAA-α5 subunit-containing receptors in the human brain after oral dosing; from tissue; host or cells: brain of healthy human volunteers, in vivo PET
T4 sequence (P31644 32-462): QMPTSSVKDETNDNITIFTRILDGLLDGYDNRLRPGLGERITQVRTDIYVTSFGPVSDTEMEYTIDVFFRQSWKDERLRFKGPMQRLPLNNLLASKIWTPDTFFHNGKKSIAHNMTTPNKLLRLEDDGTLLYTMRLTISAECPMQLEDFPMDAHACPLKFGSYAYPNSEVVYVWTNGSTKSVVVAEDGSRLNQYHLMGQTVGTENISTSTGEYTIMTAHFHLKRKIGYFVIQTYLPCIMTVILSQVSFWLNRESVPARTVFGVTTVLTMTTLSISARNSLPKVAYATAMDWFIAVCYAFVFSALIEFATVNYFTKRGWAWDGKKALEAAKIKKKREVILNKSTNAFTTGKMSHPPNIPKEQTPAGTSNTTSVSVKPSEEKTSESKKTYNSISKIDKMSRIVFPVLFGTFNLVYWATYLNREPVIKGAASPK
T4 sequence (P18507 40-467 limits assumed): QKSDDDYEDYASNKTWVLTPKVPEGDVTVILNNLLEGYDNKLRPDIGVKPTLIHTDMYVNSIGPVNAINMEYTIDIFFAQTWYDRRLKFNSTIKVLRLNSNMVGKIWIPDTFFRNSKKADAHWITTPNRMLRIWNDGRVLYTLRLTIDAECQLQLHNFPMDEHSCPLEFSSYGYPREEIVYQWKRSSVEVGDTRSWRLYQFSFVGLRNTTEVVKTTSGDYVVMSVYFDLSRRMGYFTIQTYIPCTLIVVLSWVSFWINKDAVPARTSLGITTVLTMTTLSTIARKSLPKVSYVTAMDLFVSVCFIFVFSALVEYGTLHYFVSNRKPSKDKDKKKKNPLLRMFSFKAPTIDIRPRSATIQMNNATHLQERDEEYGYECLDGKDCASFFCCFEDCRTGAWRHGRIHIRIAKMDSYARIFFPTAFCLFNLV
T4 sequence (P28472 26-473 partner): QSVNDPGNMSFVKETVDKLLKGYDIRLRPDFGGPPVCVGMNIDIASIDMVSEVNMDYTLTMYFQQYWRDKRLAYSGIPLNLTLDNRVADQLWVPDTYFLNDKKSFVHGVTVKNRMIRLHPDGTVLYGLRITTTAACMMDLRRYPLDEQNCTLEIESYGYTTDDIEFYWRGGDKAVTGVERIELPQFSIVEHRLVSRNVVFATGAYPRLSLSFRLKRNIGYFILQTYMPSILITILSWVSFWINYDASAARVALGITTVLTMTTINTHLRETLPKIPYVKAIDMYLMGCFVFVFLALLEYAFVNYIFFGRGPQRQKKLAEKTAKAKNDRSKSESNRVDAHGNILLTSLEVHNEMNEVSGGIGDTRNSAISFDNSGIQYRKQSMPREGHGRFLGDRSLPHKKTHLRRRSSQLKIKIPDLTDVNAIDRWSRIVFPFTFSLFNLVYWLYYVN
Source text: The PET study was undertaken as part of Protocol BP25611 and after four protocol amendments was described as: “A single-center, single blind molecular and functional imaging study to assess GABAA-α5 receptor expression, occupancy and functional connectivity in the brains of individuals with Down syndrome and healthy controls following a single oral administration of RO5186582 or placebo”. Full details of the protocol can be found in the Supplementary Information. The study was registered on August 17, 2012 with clinicaltrials.gov identifier NCT01667367.
Subjects returned for a follow-up visit approximately 7 to 10 days after their last dose of study medication.
The study was single-blind, i.e., subjects were blinded to dose. Blood sampling was performed at four different timepoints starting 30 min before the post dose PET scan.
Tissue time activity curves were analyzed using the simplified reference tissue model (SRTM[71]), with a basis pursuit implementation of the SRTM[72], to directly estimate the binding potential (BPND) in all target regions. […] Therefore, the time-activity curve derived from the cerebellum was used as an input for SRTM analysis.
Occupancy in scan 2 was estimated as a fractional reduction in the relevant baseline BPND (see Eq. (3)).3 Occ=BPNDBaseline-BPNDBasmisanil/BPNDBaseline.
The pharmacokinetic/pharmacodynamic population for GABAA-α5 receptor occupancy consisted of data from 9 subjects.

[2] = subject 11010, 40 mg, 3.75 h prior to scan
[3] = subject 11020, 160 mg, 3.12 h prior to scan
[4] = subject 11021, 160 mg, 3.00 h prior to scan
[5] = subject 13010, 40 mg, 2.63 h prior to scan
[6] = subject 13030, 1000 mg, 4.75 h prior to scan
[7] = subject 13031, 1000 mg, 4.77 h prior to scan
[8] = subject 13040, 20 mg, 1.48 h prior to scan
[9] = subject 13041, 20 mg, 2.20 h prior to scan
[10] = subject 13050, 80 mg, 2.43 h prior to scan

Cc1onc(-c2ccc(F)cc2)c1COc1ccc(C(=O)N2CCS(=O)(=O)CC2)cn1 [basmisanil]
% Inhibition (Serotonin 5-HT2B): 31%
% Inhibition (Chemokine CXCR2 (IL-8B)): -3%
% Inhibition [1]: 11%
EC50 (GABAA-α5 receptors; read-out: EC50 of receptor occupancy, free plasma concentration): 67 nM
EC50 (GABAA-α5 receptors; read-out: EC50 of receptor occupancy, total plasma concentration (converted)): ~1210 nM
Receptor occupancy, Accumbens (GABAA-α5 receptors; [2]): 52.1%
Receptor occupancy, Amygdala (GABAA-α5 receptors; [2]): 53.5%
Receptor occupancy, Anterior cingulate (GABAA-α5 receptors; [2]): 44.8%
Receptor occupancy, Hippocampus (GABAA-α5 receptors; [2]): 48.4%
Receptor occupancy, Insular cortex (GABAA-α5 receptors; [2]): 44.6%
Receptor occupancy, Mean (GABAA-α5 receptors; [2]): 48.68%
Receptor occupancy, Accumbens (GABAA-α5 receptors; [3]): 86.6%
Receptor occupancy, Amygdala (GABAA-α5 receptors; [3]): 91.4%
Receptor occupancy, Anterior cingulate (GABAA-α5 receptors; [3]): 75.6%
Receptor occupancy, Hippocampus (GABAA-α5 receptors; [3]): 87.2%
Receptor occupancy, Insular cortex (GABAA-α5 receptors; [3]): 75.2%
Receptor occupancy, Mean (GABAA-α5 receptors; [3]): 83.2%
Receptor occupancy, Accumbens (GABAA-α5 receptors; [4]): 87.0%
Receptor occupancy, Amygdala (GABAA-α5 receptors; [4]): 85.4%
Receptor occupancy, Anterior cingulate (GABAA-α5 receptors; [4]): 76.4%
Receptor occupancy, Hippocampus (GABAA-α5 receptors; [4]): 85.9%
Receptor occupancy, Insular cortex (GABAA-α5 receptors; [4]): 77.2%
Receptor occupancy, Mean (GABAA-α5 receptors; [4]): 82.38%
Receptor occupancy, Accumbens (GABAA-α5 receptors; [5]): 37.3%
Receptor occupancy, Amygdala (GABAA-α5 receptors; [5]): 40%
Receptor occupancy, Anterior cingulate (GABAA-α5 receptors; [5]): 32.7%
Receptor occupancy, Hippocampus (GABAA-α5 receptors; [5]): 41.3%
Receptor occupancy, Insular cortex (GABAA-α5 receptors; [5]): 32%
Receptor occupancy, Mean (GABAA-α5 receptors; [5]): 36.66%
Receptor occupancy, Accumbens (GABAA-α5 receptors; [6]): 89.5%
Receptor occupancy, Amygdala (GABAA-α5 receptors; [6]): 93.1%
Receptor occupancy, Anterior cingulate (GABAA-α5 receptors; [6]): 79.1%
Receptor occupancy, Hippocampus (GABAA-α5 receptors; [6]): 94.2%
Receptor occupancy, Insular cortex (GABAA-α5 receptors; [6]): 79.9%
Receptor occupancy, Mean (GABAA-α5 receptors; [6]): 87.16%
Receptor occupancy, Accumbens (GABAA-α5 receptors; [7]): 93.7%
Receptor occupancy, Amygdala (GABAA-α5 receptors; [7]): 97.4%
Receptor occupancy, Anterior cingulate (GABAA-α5 receptors; [7]): 82.1%
Receptor occupancy, Hippocampus (GABAA-α5 receptors; [7]): 94.9%
Receptor occupancy, Insular cortex (GABAA-α5 receptors; [7]): 82.2%
Receptor occupancy, Mean (GABAA-α5 receptors; [7]): 90.06%
Receptor occupancy, Accumbens (GABAA-α5 receptors; [8]): 29.6%
Receptor occupancy, Amygdala (GABAA-α5 receptors; [8]): 30.9%
Receptor occupancy, Anterior cingulate (GABAA-α5 receptors; [8]): 26.2%
Receptor occupancy, Hippocampus (GABAA-α5 receptors; [8]): 26.8%
Receptor occupancy, Insular cortex (GABAA-α5 receptors; [8]): 26.7%
Receptor occupancy, Mean (GABAA-α5 receptors; [8]): 28.04%
Receptor occupancy, Accumbens (GABAA-α5 receptors; [9]): 31.8%
Receptor occupancy, Amygdala (GABAA-α5 receptors; [9]): 34.7%
Receptor occupancy, Anterior cingulate (GABAA-α5 receptors; [9]): 31.7%
Receptor occupancy, Hippocampus (GABAA-α5 receptors; [9]): 35.8%
Receptor occupancy, Insular cortex (GABAA-α5 receptors; [9]): 31.7%
Receptor occupancy, Mean (GABAA-α5 receptors; [9]): 33.14%
Receptor occupancy, Accumbens (GABAA-α5 receptors; [10]): 64.2%
Receptor occupancy, Amygdala (GABAA-α5 receptors; [10]): 63.5%
Receptor occupancy, Anterior cingulate (GABAA-α5 receptors; [10]): 55.8%
Receptor occupancy, Hippocampus (GABAA-α5 receptors; [10]): 63%
Receptor occupancy, Mean (GABAA-α5 receptors; [10]): 60.86%
